The structures appear in SMILES notation.

In one assay the test system is primary hepatocytes isolated from rats. As to the kind of experiment: Cell protective effects against doxorubicin in hepatocytes (WST-1 cell viability). The assay is classed as cell-based. The following applies: Hepatocyte; primary rat hepatocytes pretreated with compound for 30 min, then doxorubicin; viability by WST-1 after 24-48 h. As to the method: Various endogenous/exogenous attacks on the cells trigger the mechanisms of cell death which is broadly classified into two types, i.e. apoptosis or necrosis. Using these cell death mechanisms, in the present experimental example, primacy hepatocytes isolated from rats were treated with drugs which were clinically shown to result in serious side-effects of hepatocyte toxicity or various chemicals which derive cell death, and the compounds synthesized in the Examples were estimated for their hepatocyte protective effects, after 24-48 h. The substances used to derive hepatocyte death include CCl4, ActD, H2O2, doxorubicin, anti-Fas Ab/Actinomycin D, acetaminophen, EtOH, CdCl2, palmitate, stearate, cyclophosphamide, terfenadine, diclofenac, simvastatin, and adefovir. Primary hepatocytes were isolated using the method of Seglen P O (Experimental Cell Research 74 (1972) pp 450-454). Briefly, hepatocytes were isolated according to the two-step collagenase perfusion method, and dead cells were removed by low speed (500 rpm) centrifugation for 10 min using percoll gradient (Kreamer B L etc, In Vitro Cellular & Developmental Biology 22 (1986) pp 201-211). During this step, the viability of cells was maintained 90% or above. The cells were suspended in HepatoZYME media (Gibco BRL), and the number of cells was counted. 1.5×10^4 cells in 100 μl were placed into the collagen-coated 96-well plate (BD biocoat), and adhered on the bottom for 3-4 h.
In order to assess the hepatocyte protective effect, above adhered cells were pretreated with the Example compounds for 30 min. At this time, the concentration of the Example compounds were serially diluted by 2-fold or 3-fold over 5 steps starting from 30 uM, 10 uM or 1 uM depending on the experiments, and the final concentration of DMSO was adjusted to 0.2%. 30 min after the treatment by compounds, cells were treated by the substances deriving hepatocyte death or hepatotoxic drugs at the concentrations indicated in Table 1. After 24-48 h, the viability of cells was determined to estimate the hepatocyte protective effects. The viability of cells was determined using WST-1 (MK-400, […]) method by the absorbance at 440 nm. Hepatocyte protective effects of the Example compounds were represented by “EC50” which was calculated from measured values. “EC50” herein means the concentration of the compound at which 50% of maximum protective effect is observed in the experiment.
(In general: Tetrazolium assays rely on reduction of a dye to a coloured formazan, in cell work by metabolically active cells.)
As usually defined, the EC50 is the concentration needed to bring the measured effect to its halfway point. Regarding `O=C1CN(CC[C@H]2CSC(c3cc4cccc(NC5CCOCC5)c4[nH]3)=N2)CCN1` [Example 182, (2-{(S)-4-[(2-oxopiperazin-4-yl)-ethyl]-4,5-dihydro-thiazol-2-yl}-1H-indol-7-yl)-(tetrahydro-pyran-4-yl)-amine], the EC50 came to 375 nM. On the same count and under the same terms, then `CCOP(=O)(CC[C@H]1CSC(c2cc3cc(C)cc(NCC4CCOCC4)c3[nH]2)=N1)OCC` [Example 244, (5-Methyl-2-{(S)-4-[2-diethoxyphosphoryl-ethyl]-4,5-dihydro-thiazol-2-yl}-1H-indol-7-yl)-(tetrahydropyran-4-yl)methyl-amine], with 195 nM; and `O=C(O)C[C@@H]1CSC(c2cc3cc(Oc4cccnc4)cc(NC4CCCC4)c3[nH]2)=N1` [Example 88, [(R)-2-(5-(pyridin-3-yl)oxy-7-cyclopentylamino-1H-indol-2-yl)-4,5-dihydro-thiazol-4-yl]-acetic acid], with 1870 nM; and `N[C@H]1CCN(CC[C@H]2CSC(c3cc4cc(Oc5ccccc5)cc(NC5CCCC5)c4[nH]3)=N2)C1` [Example 238, (5-Phenoxy-2-{(S)-4-[(3S)-3-(amino)pyrrolidin-1-yl-ethyl]-4,5-dihydro-thiazol-2-yl}-1H-indol-7-yl)-cyclopentyl-amine], with 330 nM. The same measure, in the same setting: under `Cc1cc(NC2CCOCC2)c2[nH]c(C3=N[C@@H](CC(=O)O)CS3)cc2c1` [Example 25, [(S)-2-(5-methyl-7-(tetrahydropyran-4-yl)amino-1H-indol-2-yl)-4,5-dihydro-thiazol-4-yl]-acetic acid] stands 760 nM; under `N[C@H]1CCN(CC[C@@H]2CSC(c3cc4cc(Cl)cc(NC5CCCC5)c4[nH]3)=N2)C1` [Example 176, {2-[(R)-4-((S)-3-amino-pyrrolidin-1-ylethyl)-4,5-dihydro-thiazol-2-yl]-5-chloro-1H-indol-7-yl}-cyclopentyl-amine], greater than 1000 nM. For `OC[C@@H]1CSC(c2cc3cccc(NC4CCCC4)c3[nH]2)=N1` [Example 2, [(R)-2-(7-cyclopentylamino-1H-indol-2-yl)-4,5-dihydro-1,3-thiazol-4-yl]-methanol], the EC50 is 100 nM.

For `Clc1cc(NC2CCCC2)c2[nH]c(C3=N[C@H](CCCN4CCOCC4)CS3)cc2c1` [Example 222, (5-Chloro-2-{(R)-4-[(morpholin-4-yl)-propyl]-4,5-dihydro-thiazol-2-yl}-1H-indol-7-yl)-cyclopentyl-amine], the EC50 worked out at 180 nM. For the compound `c1cc(NC2CCNCC2)c2[nH]c(C3=NCCS3)cc2c1` [Example 7, [2-(4,5-Dihydro-thiazol-2-yl)-1H-indol-7-yl]-piperidin-4-yl-amine], the EC50 was determined as 1170 nM. Still for that read-out and setting: under `OC[C@@H]1CSC(c2cc3cc(Oc4cccnc4)cc(NC4CCCC4)c3[nH]2)=N1` [Example 61, [(R)-2-(5-(pyridin-3-yl)oxy-7-cyclopentylamino-1H-indol-2-yl)-4,5-dihydro-thiazol-4-yl]-methanol] stands 780 nM; under `O=C(O)CC[C@@H]1CSC(c2cc3cc(OC(F)(F)F)cc(NC4CCCC4)c3[nH]2)=N1` [Example 117, 3-[(R)-2-(5-trifluoromethoxy-7-cyclopentylamino-1H-indol-2-yl)-4,5-dihydro-thiazol-4-yl]-propionic acid], less than 500 nM. Still for that read-out and setting: then `CCCOc1cc(NC2CCCC2)c2[nH]c(C3=N[C@H](CC(=O)O)CS3)cc2c1` [Example 84, [(R)-2-(5-propyloxy-7-cyclopentylamino-1H-indol-2-yl)-4,5-dihydro-thiazol-4-yl]-acetic acid], with 1600 nM; and `CC1CSC(c2cc3cccc(NC4CCOCC4)c3[nH]2)=N1` (centres unmarked) [Example 32, (Tetrahydropyran-4-yl)-[2-(4,5-dihydro-4-methyl-thiazol-2-yl)-1H-indol-7-yl]-amine], with 2120 nM; and `c1cc(NC2CCCC2)c2[nH]c(C3=NCCS3)cc2c1` [Example 1, Cyclopentyl-[2-(4,5-dihydro-1,3-thiazol-2-yl)-1H-indol-7-yl]-amine], with greater than 1000 nM. The same measure, in the same setting: under `CCOC(=O)CC[C@@H]1CSC(c2cc3cc(F)cc(NC4CCCC4)c3[nH]2)=N1` [Example 108, 3-[(R)-2-(5-fluoro-7-cyclopentylamino-1H-indol-2-yl)-4,5-dihydro-thiazol-4-yl]-propionic acid ethyl ester] stands less than 500 nM.

Consider `O=C(O)C[C@H]1CSC(c2cc3cc(Cl)cc(NCC4CCOCC4)c3[nH]2)=N1` [Example 18, [(S)-2-(5-chloro-7-(tetrahydropyran-4-yl)methylamino-1H-indol-2-yl)-4,5-dihydro-thiazol-4-yl]-acetic acid], for which the EC50 was 2420 nM. Still for that read-out and setting: then `CC(=O)N1CCC(Nc2cc(C)cc3cc(C4=N[C@@H](CC(=O)O)CS4)[nH]c23)C1` (stereo partly drawn) [Example 13, [(S)-2-(5-methyl-7-(1-acetylpyrrolidin-3-yl)amino-1H-indol-2-yl)-4,5-dihydro-thiazol-4-yl]-acetic acid], with 1130 nM; and `Cc1cc(NC2CCC(=O)CC2)c2[nH]c(C3=N[C@H](CC(=O)O)CS3)cc2c1` [Example 135, {(R)-2-[5-methyl-7-(4-oxo-cyclohexylamino)-1H-indol-2-yl]-4,5-dihydro-thiazol-4-yl}acetic acid], with 1260 nM; and `c1cc(NC2CCCC2)c2[nH]c(C3=N[C@H](CN4CCCC4)CS3)cc2c1` [Example 158, Cyclopentyl-[2-((R)-4-pyrrolidin-1-ylmethyl-4,5-dihydro-thiazol-2-yl)-1H-indol-7-yl]-amine], with 910 nM. As for `CC(=O)N1CCN(CC[C@H]2CSC(c3cc4cc(Cl)cc(NC5CCCC5)c4[nH]3)=N2)CC1` [Example 178, 1-(4-{2-[(S)-2-(7-cyclopentylamino-5-chloro-1H-indol-2-yl)-4,5-dihydro-thiazol-4-yl]-ethyl}-piperazin-1-yl)-ethanone], the EC50 amounted to 230 nM. For the compound `Cc1cc(NCC2CCCC2)c2[nH]c(C3=N[C@@H](CC(=O)O)CS3)cc2c1` [Example 23, [(S)-2-(5-methyl-7-cyclopentylmethylamino-1H-indol-2-yl)-4,5-dihydro-thiazol-4-yl]-acetic acid], the EC50 stood at 140 nM. Still for that read-out and setting: under `Cc1cc(NC2CCOCC2)c2[nH]c(C3=N[C@H](CC(=O)O)CS3)cc2c1` [Example 93, [(R)-2-(5-methyl-7-(tetrahydropyran-4-yl)amino-1H-indol-2-yl)-4,5-dihydro-thiazol-4-yl]-acetic acid] stands 550 nM. On the same count and under the same terms, then `Cc1cc(NC2CCC(F)(F)CC2)c2[nH]c(C3=N[C@@H](CCN4CCOCC4)CS3)cc2c1` [Example 251, (5-Methyl-2-{(S)-4-[morpholin-4-yl-ethyl]-4,5-dihydro-thiazol-2-yl}-1H-indol-7-yl)-4,4-difluorocyclohexyl-amine], with 300 nM. On the same count and under the same terms, then `CCOc1cc(NC2CCCC2)c2[nH]c(C3=N[C@@H](CC(=O)OC)CS3)cc2c1` [Example 46, [(S)-2-(5-ethoxy-7-cyclopentylamino-1H-indol-2-yl)-4,5-dihydro-thiazol-4-yl]-acetic acid methyl ester], with 400 nM.

The same assay, now with this note: primary rat hepatocytes pretreated with compound for 30 min, then doxorubicin; viability by WST-1 after 24-48 h.
Regarding `Cc1cc(NC2CCOCC2)c2[nH]c(C3=N[C@@H](CCO)CS3)cc2c1` [Example 24, [(S)-2-(5-methyl-7-(tetrahydropyran-4-yl)amino-1H-indol-2-yl)-4,5-dihydro-thiazol-4-yl]-ethanol], the EC50 turned out to be 130 nM.

For the compound `O=C1CN(CC[C@H]2CSC(c3cc4cc(Oc5ccccc5)cc(NC5CCCC5)c4[nH]3)=N2)CCN1` [Example 233], the EC50 was determined as 270 nM.

Values taken from patent publication US8222414B2, “Indole compounds as an inhibitor of cellular necrosis” (LG Life Sciences Ltd., priority 2007, dated 2012).
